Measured values reported in article PMC8717366, “Synthesis and Pharmacological Characterization of Visabron, a Backbone Cyclic Peptide Dual Antagonist of α4β1 (VLA-4)/α9β1 Integrin for Therapy of Multiple Sclerosis” (JACS Au, 2021).
Read-outs that look alike come from different tables or passages of the source. Numbered stars: 1 amine (or outer) side, 2 acyl side, 3 side chain; on linkers, the order of the positions; unused ones are H or OH. Bridge positions count the residues as written; N and C are the ends. Square brackets hold non-standard residues; d marks the D form. Peptide text beside a SMILES is read from it. N(2-Aminoethyl)Gly = O=C(CN(CCN[*:3])[*:1])[*:2]; CO = O=C([*:1])[*:2]; Nlys = NCCCCNCC(=O)O

What was measured:
Abl = target: T1, Abl (Homo sapiens, UniProt P00519); assay: PhosphoSens CSox-based kinase assay, Abl; type: biochemical; conditions: 1 mM, but not 0.1 mM; Figure 7
T1 construct: purchased Carna 08-001
T1 sequence (P00519 whole entry): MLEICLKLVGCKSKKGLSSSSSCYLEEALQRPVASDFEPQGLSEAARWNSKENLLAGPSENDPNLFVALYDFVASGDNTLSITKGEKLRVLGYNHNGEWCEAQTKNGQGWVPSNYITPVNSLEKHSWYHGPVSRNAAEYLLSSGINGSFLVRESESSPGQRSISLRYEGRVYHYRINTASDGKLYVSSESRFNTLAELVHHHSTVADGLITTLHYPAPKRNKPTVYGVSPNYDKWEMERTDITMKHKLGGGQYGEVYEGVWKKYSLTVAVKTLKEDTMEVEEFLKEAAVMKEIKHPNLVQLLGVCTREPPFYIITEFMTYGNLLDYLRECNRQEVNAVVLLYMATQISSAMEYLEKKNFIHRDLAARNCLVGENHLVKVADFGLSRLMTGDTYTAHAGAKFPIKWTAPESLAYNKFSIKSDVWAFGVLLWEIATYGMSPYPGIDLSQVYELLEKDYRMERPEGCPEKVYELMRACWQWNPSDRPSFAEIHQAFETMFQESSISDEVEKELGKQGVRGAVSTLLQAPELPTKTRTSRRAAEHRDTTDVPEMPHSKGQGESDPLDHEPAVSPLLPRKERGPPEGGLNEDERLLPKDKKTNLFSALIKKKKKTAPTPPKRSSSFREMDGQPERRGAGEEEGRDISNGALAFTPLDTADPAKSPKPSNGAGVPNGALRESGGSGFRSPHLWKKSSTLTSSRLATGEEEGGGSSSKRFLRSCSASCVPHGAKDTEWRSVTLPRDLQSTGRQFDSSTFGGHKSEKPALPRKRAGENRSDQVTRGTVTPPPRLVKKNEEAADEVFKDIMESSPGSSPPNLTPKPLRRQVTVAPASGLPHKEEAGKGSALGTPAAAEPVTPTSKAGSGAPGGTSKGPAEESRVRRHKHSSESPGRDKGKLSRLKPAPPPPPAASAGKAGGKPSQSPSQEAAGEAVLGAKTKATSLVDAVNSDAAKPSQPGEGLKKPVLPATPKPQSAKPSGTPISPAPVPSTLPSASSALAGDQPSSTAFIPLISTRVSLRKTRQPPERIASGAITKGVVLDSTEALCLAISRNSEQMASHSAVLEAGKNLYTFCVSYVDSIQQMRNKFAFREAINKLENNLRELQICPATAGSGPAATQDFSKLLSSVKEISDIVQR
Experimental: (§1) Kinase activity was measured using the PhosphoSenstechnology (AssayQuant Technologies Inc., Marlborough, MA) as detailed in the Supporting Information. […]
(§2) Visabron c (4-4) safety by in vitro evaluation using PhosphoSens - CSox based kinase assays:
(§3) A powerful method was used to measure the activity of recombinant protein kinases using a homogeneous and continuous (kinetic) format, where the level of chelation-enhanced fluorescence (CHEF) that is directly proportional to the amount of phosphorylated, real-time sensors consisting of sulfonamido-oxine (Sox) chromophore, linked to a peptide or protein substrates of selective kinases 6. […]
(§4) Kinase activity measurements: Kinase activity was measured continuously using the PhosphoSens® technology (AssayQuant Technologies Inc., Marlborough, MA) according to the manufacturers’ recommendations. This one-step homogeneous assay format uses chelation -enhanced fluorescence via optimized substrate sensors containing the unnatural fluorogenic amino -acid Sox. […]
(§5) Final reaction conditions : Protein kinase activity was determined in 54 mM HEPES, pH 7.5, 1 mM ATP, 1.2 mM DTT, 0.012% Brij-35, 0.52 mM EGTA, 10 mM MgCl2, 1% glycerol, 0.2mg/ml BSA, and 15 μM Sox -based sensor. […]

EGFR = target: T2, EGFR (Homo sapiens, UniProt P00533); assay: PhosphoSens CSox-based kinase assay, EGFR; type: biochemical; conditions: 1 mM, but not 0.1 mM; Figure 7
T2 construct: purchased BPS BS 40187
T2 sequence (P00533 25-1210): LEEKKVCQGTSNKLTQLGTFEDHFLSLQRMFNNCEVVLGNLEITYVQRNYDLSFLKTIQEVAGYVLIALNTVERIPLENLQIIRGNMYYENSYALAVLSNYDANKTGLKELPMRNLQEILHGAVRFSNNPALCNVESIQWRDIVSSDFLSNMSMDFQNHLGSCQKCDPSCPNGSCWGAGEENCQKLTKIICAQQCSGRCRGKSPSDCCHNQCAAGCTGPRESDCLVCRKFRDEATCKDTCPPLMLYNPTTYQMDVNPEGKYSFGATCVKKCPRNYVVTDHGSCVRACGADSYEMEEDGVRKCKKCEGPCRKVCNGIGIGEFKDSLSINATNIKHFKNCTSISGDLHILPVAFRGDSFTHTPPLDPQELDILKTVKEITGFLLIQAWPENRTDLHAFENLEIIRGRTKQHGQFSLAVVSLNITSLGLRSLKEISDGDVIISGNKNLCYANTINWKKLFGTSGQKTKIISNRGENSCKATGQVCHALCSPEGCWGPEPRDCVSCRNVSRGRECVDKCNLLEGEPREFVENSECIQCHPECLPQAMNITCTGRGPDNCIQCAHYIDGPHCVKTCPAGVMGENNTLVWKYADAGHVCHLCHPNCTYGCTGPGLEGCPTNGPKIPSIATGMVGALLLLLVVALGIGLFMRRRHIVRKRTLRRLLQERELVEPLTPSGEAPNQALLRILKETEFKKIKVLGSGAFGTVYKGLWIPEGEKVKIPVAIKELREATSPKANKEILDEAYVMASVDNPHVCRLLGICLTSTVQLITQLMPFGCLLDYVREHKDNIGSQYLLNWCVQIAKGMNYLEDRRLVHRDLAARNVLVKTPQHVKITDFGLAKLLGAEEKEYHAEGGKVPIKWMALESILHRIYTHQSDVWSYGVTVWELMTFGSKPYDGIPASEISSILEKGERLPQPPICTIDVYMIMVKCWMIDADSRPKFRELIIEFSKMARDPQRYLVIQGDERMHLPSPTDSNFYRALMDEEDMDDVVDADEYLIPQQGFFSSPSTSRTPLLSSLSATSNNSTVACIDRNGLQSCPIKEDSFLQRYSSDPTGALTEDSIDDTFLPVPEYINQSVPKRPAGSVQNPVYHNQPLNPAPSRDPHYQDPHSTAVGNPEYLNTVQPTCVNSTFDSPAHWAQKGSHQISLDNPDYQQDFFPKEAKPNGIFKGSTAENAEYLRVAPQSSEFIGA
Experimental: as §1, §2, §3, §4, §5

[1] = tested on: panel of 20 tyrosine protein kinases of immune cells; type: biochemical; conditions: concentration a hundred-fold higher than the IC50 for inhibition of α4β1 integrin (0.1 mM)
Experimental: as §1, §2, §3, §4, §5

[2] = tested on: U937 macrophages-VCAM-1 (α4β1, αMβ2, α3β1, α6β1); assay: Adhesion of U937 macrophages to immobilized VCAM-1; type: cell-based, human
Experimental: Cell adhesion assay was carried out as previously described[47] with minor modifications. The day before the experiment, each well was coated with VCAM-1 (3 mg/mL) immobilized on the 96-well plate in PBS by overnight incubation at 4 °C. Thereafter, nonspecific binding was blocked by incubating the wells with 1% (w/v) bovine serum albumin (BSA) in Hank’s Balanced Salt Solution (HBSS) containing 5 mM MgCl2 at room temperature for 1 h before use. The cells were labeled by incubation with 12.5 μM 5-chloromethylfluorescein diacetate (CMFDA) in HBSS without 1% BSA at 37 °C for 30 min. The labeled cells were then centrifuged at 1000 rpm and washed twice with HBSS containing 1% BSA to remove excess CMFDA. Labeled cells (about 1 × 10^5 cells/well) were plated on each well in the presence or absence of visabrons and incubated at 37 °C for 60 min. Unbound cells were removed by washing the wells three times with 1% (w/v) BSA in HBSS, and bound cells were lysed by the addition of 0.5% Triton X-100 (diluted in DDW). The fluorescence in each well was quantified with a SPECTRAFluor Plus plate reader (Tecan), at λex = 485 nm and λem = 530 nm. To determine the number of adhered cells from the fluorescence values, a standard curve was generated by serial dilution of known numbers of CMFDA-labeled cells.

[3] = U937 treated with PMA (10 ng/mL) for 24 h, read-out: IC50 U937 macrophages-VCAM-1 PMA
[4] = untreated U937, read-out: IC50 U937 macrophages-VCAM-1 control

SMILES | inhibition at 1000 µM (Abl) [%] | inhibition at 1000 µM (EGFR) [%] | Targeting of leukocyte tyrosine protein kinases [1] | IC50 [2, 3] [µM] | IC50 [2, 4] [µM]
CSCC[C@@H]1NC(=O)[C@H]([C@@H](C)O)NC(=O)CN(C(=O)[C@@H](N)CCCCN)CCCCNC(=O)NCCCCN(CC(=O)N[C@@H](CC(C)C)C(N)=O)C(=O)[C@H](CC(=O)O)NC(=O)[C@H](CC(C)C)NC1=O [visabron c (4–4)] (H-K[Nlys]TMLD[Nlys]L-NH2; linker 2-7 via CO) | 25 to 40 | 25 to 40 | did not target | 10 | 11
CSCC[C@@H]1NC(=O)[C@H]([C@@H](C)O)NC(=O)CN(C(=O)[C@@H](N)CCCCN)CCNC(=O)NCCN(CC(=O)N[C@@H](CC(C)C)C(N)=O)C(=O)[C@H](CC(=O)O)NC(=O)[C@H](CC(C)C)NC1=O [visabron c (2–2)] (H-K[N(2-Aminoethyl)Gly]TMLD[N(2-Aminoethyl)Gly]L-NH2; linker 2-7 via CO) |  |  |  | 16 | 53
